Patent US20190263796A1, “LIM KINASE INHIBITORS, PHARMACEUTICAL COMPOSITION AND METHOD OF USE IN LIMK-MEDIATED DISEASES” (CELLIPSE, priority 2016, published 2019)
Like-named read-outs stand apart in the source and are kept apart here.

Legend:
LIMK1(h) = LIMK1(h) (Homo sapiens, UniProt P53667); experiment: LIMK1 kinase assay (Eurofins Panlabs, radiometric); type: biochemical; set-up: purchased Eurofins Panlabs Inc. (contract assay service); conditions: 15 μM ATP, read-out: IC50 LIMK1
Description: Compounds were tested in a LIMK1 assay performed by Eurofins Panlabs Inc. LIMK1 (h) is incubated with 8 mM MOPS pH 7.0, 0.2 mM EDTA, 0.6 mg/mL cofilin, 10 mM Magnesium acetate and [gamma-33P]-ATP. The reaction is initiated by the addition of the Mg/ATP mix. After incubation for 40 min at room temperature, the reaction is stopped by the addition of phosphoric acid to a concentration of 0.5%. […] IC50 LIMK1 is then determined.

[1] = test system: Phospho-Ser3-Cofilin/Total Cofilin; experiment: Western blot of cellular cofilin phosphorylation status, MV4-11 (II.4); type: cell-based; conditions: Homo sapiens; MV4-11 cells; 2 h treatment
Description: MV4-11 cell line was originally purchased from the American Type Culture Collection (ATCC). MV4-11 cells are cultured in RPMI 1640 10% (v/v) FBS supplemented with 100 U/mL^−1 penicillin, 0.1 mg·mL^−1 streptomycin (PAN Biotech P06-07100) and 2 mM Glutamine (Sigma-Aldrich 59202C). Cells were maintained at 37° C. with 5% CO2.
(§1) In a 6 wells plate (Falcon 353046), 2·10^6 cells in 1.5 mL medium are treated for 2 h with compounds. Cells are then collected and cell lysis is performed at 4° C. using RIPA buffer supplemented with protease inhibitors cocktail (Sigma-Aldrich P8340) and phosphatase inhibitors cocktail (Sigma-Aldrich P5726). Following centrifugation 30 min 15000 g 4° C., supernatants are mixed with Laemmli buffer and denaturation is performed by heating 5 min 95° C. 10 μL of samples are subjected to electrophoresis on 15% SDS-PAGE. After electro-transfer (Mini Transblot, Bio-Rad), the PVDF membrane (Merck-Millipore Immobilon P IPVH00010) is blocked with Tris Buffered Saline, pH 7.4 (TBS) with 0.1% Tween 20 and 5% BSA for 1 h RT under agitation. The membrane was rinsed 3 times 10 min RT under agitation with TBS, 0.1% Tween-20 (TBST) and then 1 h RT with anti-phospho-Ser3-cofilin (Cell Signaling Technology #3313, 1/1000 dilution) antibody or anti-cofilin (Cell Signaling Technology #3312, 1/1000 dilution) diluted in TBS, 0.1% Tween 20 and 1% BSA. The membrane is then rinsed 3 times 10 min RT under agitation in TBST and incubated for 1 hour with anti-rabbit secondary antibody, horseradish peroxidase conjugated (Jackson Immunoresearch #711-036-152) under agitation at room temperature. After three washes 10 min RT in TBST, the detection of total or phosphorylated cofilin was performed using chemiluminescence kit ECL™ Plus (GE Healthcare RPN2132). For each concentration of compound, ratio between phosphorylated cofilin and total cofilin is determined. This ratio is then expressed as percentage of control ratio (i.e ratio from DMSO treated cells). IC50 is then determined.

B-Raf(h) = B-Raf(h) (Homo sapiens, UniProt P15056); experiment: B-Raf kinase assay (Eurofins Panlabs, radiometric); type: biochemical; set-up: purchased Eurofins Panlabs Inc. (contract assay service); conditions: Table 8; for IC50: 120 μM ATP, read-out: IC50 B-Raf; for Selectivity ratio: IC50 B-Raf (nM) divided by IC50 LIMK1 (nM)
Description: IC50 B-Raf is then determined.
Selectivity ratios are calculated by dividing the IC50 B-Raf (nM) by the IC50 LIMK1 (nM).

P-MEK/Total MEK [2] = experiment: Western blot MEK1 phosphorylation, MOLM-14; type: cell-based; conditions: read-out: IC50 P-MEK/Total MEK; MOLM-14 cells; 2 h
Description: (§2) MOLM-14 cell line was originally purchased from the American Type Culture Collection (ATCC). MOLM-14 cells are cultured in MEM alpha 10% (v/v) FBS supplemented with 100 U/mL^−1 penicillin, 0.1 mg·mL^−1 streptomycin (PAN Biotech P06-07100). Cells were maintained at 37° C. with 5% CO2.
(§3) In a 6 wells plate (Falcon 353046), 2·10^6 cells in 1.5 mL medium are treated for 2 h with compounds. Cells are then collected and cell lysis is performed at 4° C. using RIPA buffer supplemented with protease inhibitors cocktail (Sigma-Aldrich P8340) and phosphatase inhibitors cocktail (Sigma-Aldrich P5726). Following centrifugation 30 min 15000 g 4° C., supernatants are mixed with Laemmli buffer and denaturation is performed by heating 5 min 95° C. 10 μL of samples are subjected to electrophoresis on 15% SDS-PAGE. After electro-transfer (Mini Transblot, Bio-Rad), the PVDF membrane (Merck-Millipore Immobilon P IPVH00010) is blocked with Tris Buffered Saline, pH 7.4 (TBS) with 0.1% Tween 20 and 5% BSA for 1 h at room temperature under agitation. The membrane was rinsed 3 times 10 min at room temperature under agitation with TBS, 0.1% Tween-20 (TBST) and then 1 h at room temperature with anti-phospho-Ser218/222-MEK1 (Merck-Millipore 07-461, 1/1000 dilution) antibody or anti-MEK1 (Merck-Millipore 07-641, 1/1000 dilution) diluted in TBS, 0.1% Tween 20 and 1% BSA. The membrane is then rinsed 3 times 10 min RT under agitation in TBST and incubated for 1 h with anti-rabbit secondary antibody, horseradish peroxidase conjugated (Jackson Immunoresearch #711-036-152) under agitation at room temperature. After three washes 10 min at room temperature in TBST, the detection of total or phosphorylated cofilin was performed using chemiluminescence kit ECL™ Plus (GE Healthcare RPN2132). For each concentration of compound, ratio between phosphorylated cofilin and total cofilin is determined. This ratio is then expressed as percentage of control ratio (i.e., ratio from DMSO treated cells). IC50 P-MEK/Total MEK is then determined.
(§4) Selectivity ratios are calculated by dividing the IC50 P-MEK/Total MEK value (μM) by the IC50 Phospho-Ser3-Cofilin/Total Cofilin value (μM).

[3] = test system: Phospho-Ser3-Cofilin/Total Cofilin; experiment: Western blot cofilin phosphorylation, Kasumi-1; type: cell-based; conditions: Homo sapiens; Kasumi-1 cells; 2 h
Description: Kasumi-1 cell line was originally purchased from the American Type Culture Collection (ATCC). Kasumi-1 cells are cultured in RPMI 1640 20% (v/v) FBS supplemented with 100 U/mL^−1 penicillin, 0.1 mg·mL^−1 streptomycin (PAN Biotech P06-07100). Cells were maintained at 37° C. with 5% CO2.
In a 6 wells plate (Falcon 353046), 2·10^6 cells in 1.5 mL medium are treated for 2 h with compounds. Cells are then collected and cell lysis is performed at 4° C. using RIPA buffer supplemented with protease inhibitors cocktail (Sigma-Aldrich P8340) and phosphatase inhibitors cocktail (Sigma-Aldrich P5726). Following centrifugation 30 min 15000 g 4° C., supernatants are mixed with Laemmli buffer and denaturation is performed by heating 5 min 95° C. 10 μL of samples are subjected to electrophoresis on 15% SDS-PAGE. After electro-transfer (Mini Transblot, Bio-Rad), the PVDF membrane (Merck-Millipore Immobilon P IPVH00010) is blocked with Tris Buffered Saline, pH 7.4 (TBS) with 0.1% Tween 20 and 5% BSA for 1 h RT under agitation. […] For each concentration of compound, ratio between phosphorylated cofilin and total cofilin is determined. This ratio is then expressed as percentage of control ratio (i.e., ratio from DMSO treated cells). IC50 Phospho-Ser3-Cofilin/Total Cofilin is then determined.

[4] = test system: Phospho-Ser3-Cofilin/Total Cofilin; experiment: Western blot cofilin phosphorylation, HL-60; type: cell-based; conditions: Homo sapiens; HL-60 cells; 2 h
Description: (§5) HL-60 cell line was originally purchased from the Leibniz-Institut Deutsche Sammlung von Mikroorganismen und Zellkulturen GmbH (DSMZ). HL-60 cells are cultured in RPMI 1640 10% (v/v) FBS supplemented with 100 U/mL^−1 penicillin, 0.1 mg·mL^−1 streptomycin (PAN Biotech P06-07100). Cells were maintained at 37° C. with 5% CO2.
as §1, with “10 min at room temperature under agitation” for “10 min RT under agitation”, “1 h at room temperature with anti-phospho-Ser3-cofilin” for “1 h RT with anti-phospho-Ser3-cofilin”, “for 1 h with anti-rabbit” for “for 1 hour with anti-rabbit”, “10 min at room temperature in TBST,” for “10 min RT in TBST,”, “control ratio (i.e., ratio from” for “control ratio (i.e ratio from”, “cells). IC50 Phospho-Ser3-Cofilin/Total Cofilin is then” for “cells). IC50 is then”

[5] = test system: Phospho-Ser3-Cofilin/Total Cofilin; experiment: Western blot cofilin phosphorylation, MOLM-14; type: cell-based; conditions: MOLM-14 cells; 2 h
Description: as §2
as §1, with “10 min at room temperature under agitation” for “10 min RT under agitation”, “1 h at room temperature with anti-phospho-Ser3-cofilin” for “1 h RT with anti-phospho-Ser3-cofilin”, “for 1 h with anti-rabbit” for “for 1 hour with anti-rabbit”, “10 min at room temperature in TBST,” for “10 min RT in TBST,”, “control ratio (i.e., ratio from” for “control ratio (i.e ratio from”, “cells). IC50 Phospho-Ser3-Cofilin/Total Cofilin is then” for “cells). IC50 is then”

P-MEK/Total MEK [6] = experiment: Western blot MEK1 phosphorylation, HL-60; type: cell-based; conditions: Homo sapiens, HL-60, 2 h, read-out: IC50 P-MEK/Total MEK
Description: as §5, §3, §4

[7] = test system: Phospho-Ser3-Cofilin/Total Cofilin; experiment: Western blot cofilin phosphorylation, MOLM-13; type: cell-based; conditions: MOLM-13 cells; 2 h
Description: as §5, with “MOLM-13” for “HL-60”, “20%” for “10%”
as §1, with “10 min at room temperature under agitation” for “10 min RT under agitation”, “1 h at room temperature with anti-phospho-Ser3-cofilin” for “1 h RT with anti-phospho-Ser3-cofilin”, “for 1 h with anti-rabbit” for “for 1 hour with anti-rabbit”, “10 min at room temperature in TBST,” for “10 min RT in TBST,”, “control ratio (i.e., ratio from” for “control ratio (i.e ratio from”, “cells). IC50 Phospho-Ser3-Cofilin/Total Cofilin is then” for “cells). IC50 is then”

P-MEK/Total MEK [8] = experiment: Western blot MEK1 phosphorylation, MOLM-13; type: cell-based; conditions: read-out: IC50 P-MEK/Total MEK; MOLM-13 cells; 2 h
Description: as §5, with “MOLM-13” for “HL-60”, “20%” for “10%”
as §3, §4

P-MEK/Total MEK [9] = experiment: Western blot MEK1 phosphorylation, Kasumi-1; type: cell-based; conditions: Homo sapiens, Kasumi 1, 2 h, read-out: IC50 P-MEK/Total MEK
Description: Cells were maintained at 37° C. with 5% CO2.
as §3, §4

Sequence of B-Raf(h) (P15056 whole entry): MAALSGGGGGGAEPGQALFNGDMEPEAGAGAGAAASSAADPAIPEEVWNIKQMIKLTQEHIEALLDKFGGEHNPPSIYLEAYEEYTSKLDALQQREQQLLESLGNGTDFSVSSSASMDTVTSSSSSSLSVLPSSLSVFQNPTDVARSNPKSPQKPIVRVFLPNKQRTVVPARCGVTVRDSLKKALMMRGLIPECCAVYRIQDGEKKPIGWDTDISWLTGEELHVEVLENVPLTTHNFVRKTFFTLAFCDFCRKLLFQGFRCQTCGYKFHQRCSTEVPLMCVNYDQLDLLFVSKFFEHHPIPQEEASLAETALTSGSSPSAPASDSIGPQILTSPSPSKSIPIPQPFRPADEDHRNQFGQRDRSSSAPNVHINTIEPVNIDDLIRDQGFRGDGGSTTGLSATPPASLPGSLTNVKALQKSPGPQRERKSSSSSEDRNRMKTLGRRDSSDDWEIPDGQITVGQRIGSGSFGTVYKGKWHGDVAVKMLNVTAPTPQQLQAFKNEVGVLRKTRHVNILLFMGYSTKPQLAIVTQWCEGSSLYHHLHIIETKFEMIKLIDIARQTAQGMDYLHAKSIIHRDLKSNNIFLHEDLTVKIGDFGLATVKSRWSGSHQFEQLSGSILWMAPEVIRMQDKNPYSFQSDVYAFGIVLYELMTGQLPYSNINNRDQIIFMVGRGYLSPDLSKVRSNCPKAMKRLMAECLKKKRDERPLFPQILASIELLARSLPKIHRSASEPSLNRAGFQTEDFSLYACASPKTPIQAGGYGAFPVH
Sequence of LIMK1(h) (P53667 whole entry): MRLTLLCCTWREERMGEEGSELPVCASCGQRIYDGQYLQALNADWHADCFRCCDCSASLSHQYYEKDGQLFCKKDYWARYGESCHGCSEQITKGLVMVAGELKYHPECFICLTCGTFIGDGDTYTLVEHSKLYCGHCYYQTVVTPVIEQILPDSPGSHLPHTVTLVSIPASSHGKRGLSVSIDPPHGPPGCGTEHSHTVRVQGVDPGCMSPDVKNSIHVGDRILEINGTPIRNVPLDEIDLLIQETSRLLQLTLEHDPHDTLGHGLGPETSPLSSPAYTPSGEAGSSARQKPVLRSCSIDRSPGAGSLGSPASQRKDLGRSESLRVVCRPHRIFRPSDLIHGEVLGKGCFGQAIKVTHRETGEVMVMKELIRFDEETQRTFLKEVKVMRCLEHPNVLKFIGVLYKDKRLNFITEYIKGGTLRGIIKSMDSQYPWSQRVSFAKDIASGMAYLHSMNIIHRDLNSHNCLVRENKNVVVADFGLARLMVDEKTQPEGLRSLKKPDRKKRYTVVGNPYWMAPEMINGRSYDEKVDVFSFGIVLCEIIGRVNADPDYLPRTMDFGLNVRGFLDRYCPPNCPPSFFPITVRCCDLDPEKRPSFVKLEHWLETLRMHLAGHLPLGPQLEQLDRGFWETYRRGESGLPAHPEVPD

Row | SMILES | IC50 (LIMK1(h); Table 2) | IC50 [1] | IC50 (B-Raf(h)) | Selectivity ratio (B-Raf(h)) | other results
1 | CCCS(=O)(=O)Nc1cccc(-c2nc(C(C)(C)C)sc2-c2ccnc(Nc3ccccc3)n2)c1F [Compound 3, N-(3-(2-(tert-butyl)-5-(2-(phenylamino)pyrimidin-4-yl)thiazol-4-yl)-2-fluorophenyl)propane-1-sulfonamide] | 100 to 500 nM | < 200 nM |  |  | 
2 | CC(C)(C)OC(=O)Nc1cccc(-c2nc(C(C)(C)C)sc2-c2ccnc(Nc3ccccc3)n2)c1F [Compound 6, tert-butyl (3-(2-(tert-butyl)-5-(2-(phenylamino)pyrimidin-4-yl)thiazol-4-yl)-2-fluorophenyl)carbamate] | 500 to 5000 nM | > 1000 nM | 500 to 5000 nM | 16 | 
3 | CC(C)(C)c1nc(-c2cccc(NS(=O)(=O)CCC(F)(F)F)c2F)c(-c2ccnc(Nc3ccccc3)n2)s1 [Compound 4, N-(3-(2-(tert-butyl)-5-(2-(phenylamino)pyrimidin-4-yl)thiazol-4-yl)-2-fluorophenyl)-3,3,3-trifluoropropane-1-sulfonamide] | 100 to 500 nM | 200 to 1000 nM |  |  | 
4 | CNC(=O)Cc1nc(-c2cccc(NS(=O)(=O)c3c(F)cccc3F)c2F)c(-c2ccnc(Nc3ccccc3)n2)s1 [9 (Na)] |  |  |  |  | IC50 (P-MEK/Total MEK [2]): 200 to 1000 nM; IC50 [3]: 200 to 1000 nM; IC50 [4]: 200 to 1000 nM; IC50 [5]: < 200 nM; IC50 (P-MEK/Total MEK [6]): > 1000 nM; IC50 [7]: 200 to 1000 nM; IC50 (P-MEK/Total MEK [8]): > 1000 nM; IC50 (P-MEK/Total MEK [9]): > 1000 nM
5 | CC(C)(C)c1nc(-c2cccc(NC(=O)C(=O)c3c(F)cccc3F)c2F)c(-c2ccnc(Nc3ccccc3)n2)s1 [Compound 5, N-(3-(2-(tert-butyl)-5-(2-(phenylamino)pyrimidin-4-yl)thiazol-4-yl)-2-fluorophenyl)-2-(2,6-difluorophenyl)-2-oxoacetamide] | 100 to 500 nM |  | 500 to 5000 nM | 11 | IC50 (LIMK1(h); Table 8): 500 to 5000 nM
6 | CC(C)(C)c1nc(-c2cccc(NS(=O)(=O)c3c(F)cccc3F)c2F)c(-c2ncnc3[nH]ccc23)s1 [Compound 7, N-(3-(2-(tert-butyl)-5-(7H-pyrrolo[2,3-d]pyrimidin-4-yl)thiazol-4-yl)-2-fluorophenyl)-2,6-difluorobenzenesulfonamide] | 500 to 5000 nM | 200 to 1000 nM |  |  | 
7 | CCOC(=O)Cc1nc(-c2cccc(NS(=O)(=O)c3c(F)cccc3F)c2F)c(-c2ccnc(Nc3ccccc3)n2)s1 [Compound 2, ethyl 2-(4-(3-(2,6-difluorophenylsulfonamido)-2-fluorophenyl)-5-(2-(phenylamino)pyrimidin-4-yl)thiazol-2-yl)acetate] | < 10 nM | > 1000 nM | 10 to 100 nM | 4 | 
8 | CC(C)(C)c1nc(-c2cccc(NS(=O)(=O)C3CC3)c2F)c(-c2ccnc(Nc3ccccc3)n2)s1 [Compound 10, N-(3-(2-(tert-butyl)-5-(2-(phenylamino)pyrimidin-4-yl)thiazol-4-yl)-2-fluorophenyl)cyclopropanesulfonamide] | 100 to 500 nM |  |  |  | 
